Assay results reported in ChEMBL document CHEMBL5620372, “Pharmacological inhibition of ferroptosis as a therapeutic target for sepsis-associated organ damage” (Eur J Med Chem, 2023).

Legend:
[1] = Oral bioavailability in human; type: ADME, organism-based; conditions: in vivo
[2] = Half life in human plasma; type: ADME, cell-free
[3] = Cmax in human plasma; type: ADME, cell-free
[4] = Oral bioavailability in human at 2 mg/kg; type: ADME, organism-based; conditions: in vivo
[5] = Drug recovery in rat feces at 10 mg/kg, IG measured after 36 hrs; type: ADME, organism-based; conditions: faeces, po, read-out: Drug recovery
[6] = Drug recovery in rat urine at 10 mg/kg, IG measured after 36 hrs; type: ADME, organism-based; conditions: po, read-out: Drug recovery

Q: Which bioavailability [1] does the source give for `CC(=O)Nc1ccc(O)cc1` [ACETAMINOPHEN] here?
A: The bioavailability was 86%.

Q: And the half-life [2]?
A: Its half-life is 12 min.

Q: For `O=c1c(-c2ccc(O)cc2)coc2c([C@@H]3O[C@H](CO)[C@@H](O)[C@H](O)[C@H]3O)c(O)ccc12` [PUERARIN], which Cmax [3] is on record?
A: Its Cmax is 140 ng/mL.

Q: What about the bioavailability [4] of the same compound?
A: The bioavailability was 7%.

Q: Which results are given for `Oc1ccc(/C=C/c2cc(O)cc(O)c2)cc1` [RESVERATROL]?
A: dose excreted at 36 h [5]: 0.07%; dose excreted at 36 h [6]: 0.15%
